Measurements reported in patent publication US20130136724A1, “PIG FEED, AND METHOD FOR FEEDING SAME” (Kaneka Corporation, priority 2010, published 2013).

Key:
Format in all cases: in vivo, swine
mother sows [1] = test: Feed test in mother sows, coenzyme Q10 60 ppm in feeds for eight months (Example 1)
Method: About 160 mother sows from an actual swine farm were used and the study group was fed with feeds (coenzyme Q content in all feeds: 60 ppm) which were prepared by mixing coenzyme Q10 in normal feeds for mother sows (“ecobreed” during pregnancy, “ecolitter” during lactation). This feed test continued for eight months in which feeding to all the mother sows was simultaneously started and simultaneously finished. Before and after the test period, only the original feeds for mother sows were fed. In this test of feeding to the sows at pregnancy period, as the pregnancy period of sows continues 114 days and the interval to the next conception after parturition is about 31 days, it is apparent that in this test, coenzyme Q10 was administered to the mother sows in various stages of pregnancy or lactation which include a specific period in latter pregnancy, the entire pregnancy period, periods prior to or after mating, and a period from mating to early pregnancy. The mother sows were reared and managed in a common manner. In order to confirm that coenzyme Q10 was mixed in the feeds for mother sows, about 100 g of each coenzyme Q10-containing test feed were sampled from three points of different feeders after one week from the preparation thereof in the test period and the each sample was analyzed.

mother sows [2] = test: Interval of recurrent estrous of coenzyme Q10-fed mother sows (Example 6); conditions: 100 ppm in feed
Method: A coenzyme Q10-fed test group was fed with a feed prepared by adding coenzyme Q10 at a concentration of 100 ppm to a normal feed for mother sows (Kyodo Shiryo Co., Ltd.) for a test period (four months). A control group was fed with only the normal feed for mother sows. Estrous cycles were evaluated by observing whether sows were in estrus for three months from one month after the start of the test until the end of the test. The test group consisted of 1055 mother sows, and the control group consisted of 1022 sows.

[3] = Coenzyme Q10 content in colostrum of mother sows by HPLC (Example 1); conditions: colostrum (first day) of mother sows, 60 ppm in feed, vs periods without administration
Method: About 160 mother sows from an actual swine farm were used and the study group was fed with feeds (coenzyme Q content in all feeds: 60 ppm) which were prepared by mixing coenzyme Q10 in normal feeds for mother sows (“ecobreed” during pregnancy, “ecolitter” during lactation). This feed test continued for eight months in which feeding to all the mother sows was simultaneously started and simultaneously finished. Before and after the test period, only the original feeds for mother sows were fed. […] Additionally, in order to analyze the coenzyme Q10 content in milk of mother sows during lactation, about 15 ml of colostrum (first day) were sampled in a 50-ml disposal tube from six mother sows during lactation in the periods in which coenzyme Q10 was administered to them or the periods in which coenzyme Q10 was not administered to them, and the samples were analyzed for coenzyme Q10 and the ratio of the reduced form and the oxidized form of coenzyme Q10 by HPLC.

mother sows [4] = test: Fertility of second mating of coenzyme Q10-fed mother sows (Example 5); conditions: 100 ppm in feed, four months, pregnancy determined on the 28th day after second mating
Method: A coenzyme Q10-fed test group was fed with a feed prepared by adding coenzyme Q10 at a concentration of 100 ppm to a normal feed for mother sows (Kvodo Shiryo Co., Ltd.) for a test period (four months). A control group was fed with only the normal feed for mother sows. The sows were tested for pregnancy on the 28th day after mating, and unfertilized sows were mated again. The fertility was evaluated as a pregnancy rate for three months from one month after the start of the test until the end of the test. Whether the sows were pregnant (fertilized) was determined by sonography or the like on the 28th day after first mating and second mating. The test group consisted of 952 mother sows, and the control group consisted of 992 mother sows.

mother sows [5] = test: Coenzyme Q10 fed to mother sows in early, middle or latter pregnancy, farrowing rate and number of weaned piglets (Example 4); conditions: for Number of weaned piglets (average per mother sow): 100 ppm in feed of mother sows
Excerpt: Test groups E to G were fed with a feed prepared by adding coenzyme Q10 at a concentration of 100 ppm to a normal feed for mother sows (crude protein 15.0% or more, crude fat 2.0% or more, crude fiber 5.0% or less, crude ash 8.0% or less, calcium 0.6% or more, phosphorus 0.4% or more, TDN 74.0% or more) in early pregnancy period (test group […]), middle pregnancy period (test group F) or latter pregnancy period (test group G), and were fed only with the normal feed for mother sows in the other periods. A control group was fed only with the normal feed for mother sows throughout the entire pregnancy period. The “early pregnancy” refers to the period from mating until the 38th day, the “middle pregnancy” refers to the period from the 39th day until the 76th day after mating, and the “latter pregnancy” refers to the period (about 38 days) from the 77th day after mating until parturition. Although whether sows are pregnant can be determined by sonography generally on the 25th or 26th day after mating, the test feeding was started without checking whether the mother sows were pregnant in this test. Sows that were found not to be pregnant later were eliminated from the test. Coenzyme Q10 was not administered to the mother sows during lactation and piglets born to the mother sows. Each of control and test groups consisted of five mother sows per test, and the same test was repeated three times. Consequently, 15 sows in total were tested per group. Primiparous sows were not used, and only multiparous sows (para 2 to 10) were used for the test. A coenzyme Q10-containing premix was prepared by adding coenzyme Q10 to defatted rice bran to a concentration of 1/60. This premix was added to the normal feed with a measuring spoon (15 g/spoon) to the above-mentioned coenzyme Q10 concentrations. The feeds thus prepared were fed in a common manner. The amount of the feed fed to each mother sow was 2.5 kg/day in average in all the groups. The mother sows and piglets born to the mother sows were reared in accordance with rearing management standards of the farm. The respective groups were evaluated based on the number of piglets (the number of total births) per mother sow, and the number of living piglets among them (the number of live births), and the number of piglets that survived to weaning (the number of weaned piglets).

piglets = test: Feeding coenzyme Q10 to piglets of coenzyme Q10-fed mother sows through weaning, piglet and fattening periods (Example 2); conditions: piglets fed about 80 ppm in weaning period feed, vs control group
Excerpt: The piglets of the mother sows to which coenzyme Q10 had been administered in the test of Example 1 were fed with the following feeds: a feed prepared by adding coenzyme Q10 at about 80 ppm to a normal feed (“Healthy Pig” (registered trademark)) for the weaning period; and feeds prepared by adding coenzyme Q10 at 40 ppm to normal feeds (“Take Five” for the former half of the piglet period, “Nobita kun” for the latter half of the piglet period, and “NIC Niku Buta EX” for the fattening period). The piglets were reared and managed in a common manner. In all the periods, control groups were set up for each to which coenzyme Q10 was not administered, and the control group was also reared in a common manner.
The “weaning period” refers to the period from the 3rd day until 26th day after birth, and the “piglet period” refers to the period from the 27th day until the 84th day after birth.

mother sows [6] = test: Coenzyme Q10 fed to mother sows in middle or late pregnancy, growth of postnatal piglets (Example 3)
Excerpt: Test groups A to D were fed with feeds prepared by adding coenzyme Q10 at 100 ppm or 400 ppm to a normal feed for mother sows (crude protein 15.0% or more, crude fat 2.0% or more, crude fiber 5.0% or less, crude ash 8.0% or less, calcium 0.6% or more, phosphorus 0.4% or more, TDN 74.0% or more) in middle pregnancy (test groups A and B) or late pregnancy (test groups C and D), and were fed only with the normal feed for mother sows in the other periods. A control group was fed only with the normal feed for mother sows throughout the entire pregnancy period. Here, the term of “middle pregnancy” refers to the period from the 39th day until the 76th day after mating, and the term of “latter pregnancy” refers to the period (about 38 days) from the 77th day after mating until parturition. The test continued for about five and a half months. Also, coenzyme Q10 was not administered to the mother sows during lactation and the piglets born to the mother sows. As for head count of mother sows, each of control and test groups consisted of five mother sows per test, and the same test was repeated three times. Consequently, […]. Primiparous sows were not used, and only multiparous sows (para 2 to 10) were used for the test. A coenzyme Q10-containing premix was prepared by adding coenzyme Q10 to defatted rice bran to be a concentration of 1/60, and was mixed with the normal feed with a measuring spoon (15 g/spoon) to the above-mentioned coenzyme Q10 concentrations. The feeds thus prepared were fed in a common manner. The average amount of the feed per mother sow was 2.5 kg/day in all the groups. The mother sows and the piglets born to the mother sows were reared in accordance with rearing management standards of the farm. The piglets born to the mother sows of the respective groups were evaluated for weight at birth, weight at weaning, and the like.

[7] = 60 ppm in feed, vs periods in which coenzyme Q10 was not administered
[8] = piglets born to mother sows fed 60 ppm, vs piglets reared in a conventional manner
[9] = early pregnancy, 100 ppm, compared to the control group

## COC1=C(OC)C(=O)C(C/C=C(\C)CC/C=C(\C)CC/C=C(\C)CC/C=C(\C)CC/C=C(\C)CC/C=C(\C)CC/C=C(\C)CC/C=C(\C)CC/C=C(\C)CCC=C(C)C)=C(C)C1=O [coenzyme Q10]
Mother sows [1]; [7]
  frequency of albinism: decreased
  frequency of mummified: decreased
  number of milk-fed piglets: increased
  number of total births: increased
  number of weaned piglets: increased
Mother sows [1]; [8]
  body weight of piglets after three weeks from birth: heavier
  episodes of diarrhea in piglets: less episodes
Mother sows [2]; four months
  interval of recurrent estrous: 5.59 days
Mother sows [2]; test group vs control group
  shortening of the interval of recurrent estrous: 0.33 days
[3]
  coenzyme Q10 content in colostrum: apparently higher
Mother sows [4]
  fertility of second mating (pregnancy rate): 94%
Mother sows [5]; Test group E: early pregnancy
  Number of weaned piglets (average per mother sow): 10.4
Mother sows [5]; Test group F: middle pregnancy
  Number of weaned piglets (average per mother sow): 9.6
Mother sows [5]; Test group G: late pregnancy
  Number of weaned piglets (average per mother sow): 9.7
Mother sows [5]; [9]
  increase in the average number of weaned piglets per mother sow: not less than 1
  increase in the number of live births: not less than 1
  increase in the number of total births: not less than 1
piglets
  number of weaned piglets per mother sow: larger
Mother sows [6]; Test group A: middle pregnancy, 100 ppm in feed of mother sows
  Weight at weaning (average, kg): 8.37 kg
Mother sows [6]; Test group B: middle pregnancy, 400 ppm in feed of mother sows
  Weight at weaning (average, kg): 8.26 kg
Mother sows [6]; Test group C: late pregnancy, 100 ppm in feed of mother sows
  Weight at weaning (average, kg): 8.55 kg
Mother sows [6]; Test group D: late pregnancy, 400 ppm in feed of mother sows
  Weight at weaning (average, kg): 8.51 kg
Mother sows [6]; test groups (100 or 400 ppm, middle or late pregnancy) vs control group
  weight at birth: not so different
